In patent publication US6887899B1, “Method for controlling house dust mites with a composition comprising phenylethyl propionate” (Ecosmart Technologies, Inc., priority 1999, dated 2005):

System: American home dust mites
Test: Efficacy of plant essential oils (actives) against dust mite, residue on glass petri dish
From the text: Efficacy of different plant essential oils (actives) against dust mite
Two different concentrations of each test actives were used
50 dust mites (American home dust mites) were used per replicate. Four replicates were used per test concentration
Chemicals were applied to the surface of 100 mm glass petri dish in acetone. The control plates received same volume of solvent (acetone) only. All plates left at room temperature for air dry. After 1 hr (complete evaporation of acetone) the dust mites were transferred to each plate.
test actives were tested with and without 2 parts of piperonyl butoxide (PBO), known synergist.
Data are the mean of four replicates (200 dust mites per test concentration per chemical)

[1] = 25 ppm, 5 min, W/PBO (2 parts piperonyl butoxide)
[2] = 25 ppm, 15 min, W/PBO (2 parts piperonyl butoxide)
[3] = 25 ppm, 60 min, W/PBO (2 parts piperonyl butoxide)
[4] = 250 ppm, 5 min, W/PBO (2 parts piperonyl butoxide)

Row | Compound | % Mortality (25 ppm, 5 min, W/O PBO) | % Mortality [1] | % Mortality (25 ppm, 15 min, W/O PBO) | % Mortality [2] | % Mortality (25 ppm, 60 min, W/O PBO) | % Mortality [3] | % Mortality (250 ppm, 5 min, W/O PBO) | % Mortality [4] | % Mortality (250 ppm, 15 min, W/O PBO) | % Mortality (250 ppm, 60 min, W/O PBO) | % Mortality (250 ppm, 15 min, W/PBO (2 parts piperonyl butoxide)) | % Mortality (250 ppm, 60 min, W/PBO (2 parts piperonyl butoxide))
1 | OCc1ccccc1 [BA, Benzyl Alcohol] | 53% | 68% | 61.0% | 73.0% | 68.0% | 79.0% | 90% | 100% | 98% | 100% | – | –
2 | CCC(=O)OCCc1ccccc1 [PEP, phenethyl propionate] | 54% | 63% | 60.0% | 69.0% | 62.0% | 78.0% | 80% | 97% | 92% | 99% | 99% | 100%
3 | Cc1ccc(C(C)C)c(O)c1 [thymol] | 67% | 80% | 72.2% | 85.0% | 80.0% | 87.5% | 100% | 100% | – | – | – | –
